Data from the supplement of paper PMC10307832.

Key:
Assay in all cases: relative viability (nuclei count vs DMSO), 5 days (fraction); higher = more cells survive
IU1-47 + Palbociclib = compound: CC1=CC(=C(N1C2=CC=C(C=C2)Cl)C)C(=O)CN3CCCCC3 [IU1-47] + CC(=O)c1c(C)c2cnc(Nc3ccc(N4CCNCC4)cn3)nc2n(C2CCCC2)c1=O [Palbociclib] (partner 0.5 µM)
Summary of the method: (§1)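 A single step with final 0.05% Triton X-100, 1% formaldehyde and 1 ug/ml Hoechst fixed the cells and stained nuclei 5 days after treatment. Lung cancer cell lines in 1536-well plates had been treated by pin tool the day after seeding with one drug alone or a fixed anchor-drug dose plus five library-drug doses (not always all listed) in √10 steps, and nuclei were counted on 4× images. Relative viability is the ratio of nuclei in treated wells to nuclei in vehicle wells, taken as the median of duplicate plates.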

IU1-47 + Luminespib = compound: CC1=CC(=C(N1C2=CC=C(C=C2)Cl)C)C(=O)CN3CCCCC3 [IU1-47] + CCNC(=O)c1noc(-c2cc(C(C)C)c(O)cc2O)c1-c1ccc(CN2CCOCC2)cc1 [Luminespib] (partner 0.01 µM)
Summary of the method: as §1

IU1-47 + AZD7762 = compound: CC1=CC(=C(N1C2=CC=C(C=C2)Cl)C)C(=O)CN3CCCCC3 [IU1-47] + NC(=O)Nc1cc(-c2cccc(F)c2)sc1C(=O)N[C@H]1CCCNC1 [AZD7762] (partner 0.2 µM)
Summary of the method: as §1

FG-4592 + Palbociclib = compound: Cc1nc(C(=O)NCC(=O)O)c(O)c2ccc(Oc3ccccc3)cc12 [FG-4592] + CC(=O)c1c(C)c2cnc(Nc3ccc(N4CCNCC4)cn3)nc2n(C2CCCC2)c1=O [Palbociclib] (partner 0.5 µM)
Summary of the method: as §1

Row | Cell Line | relative viability (IU1-47 + Palbociclib; first compound 0.08 µM) | relative viability (IU1-47 + Palbociclib; first compound 0.253 µM) | relative viability (IU1-47 + Palbociclib; first compound 0.8 µM) | relative viability (IU1-47 + Palbociclib; first compound 2.53 µM) | relative viability (IU1-47 + Palbociclib; first compound 8 µM) | relative viability (IU1-47 + Luminespib; first compound 0.08 µM) | relative viability (IU1-47 + Luminespib; first compound 0.253 µM) | relative viability (IU1-47 + Luminespib; first compound 0.8 µM) | relative viability (IU1-47 + Luminespib; first compound 2.53 µM) | relative viability (IU1-47 + Luminespib; first compound 8 µM) | relative viability (IU1-47 + AZD7762; first compound 0.08 µM) | relative viability (IU1-47 + AZD7762; first compound 0.253 µM) | relative viability (IU1-47 + AZD7762; first compound 0.8 µM) | relative viability (IU1-47 + AZD7762; first compound 2.53 µM) | relative viability (IU1-47 + AZD7762; first compound 8 µM) | relative viability (FG-4592 + Palbociclib; first compound 0.08 µM) | relative viability (FG-4592 + Palbociclib; first compound 0.253 µM) | relative viability (FG-4592 + Palbociclib; first compound 2.53 µM) | relative viability (FG-4592 + Palbociclib; first compound 8 µM) | relative viability (FG-4592 + Palbociclib; first compound 0.8 µM)
1 | LU99A | 0.373 | 0.43 | 0.399 | 0.496 | 0.372 | 0.32 | 0.182 | 0.273 | 0.302 | 0.259 | 0.404 | 0.412 | 0.401 | 0.33 | 0.292 | 0.38 | 0.417 | 0.432 | 0.382 | –
2 | NCI-H1355 | 0.422 | 0.414 | 0.41 | – | 0.37 | 0.773 | 0.721 | 0.735 | – | 0.64 | 0.798 | 0.957 | 0.844 | – | 0.584 | 0.394 | 0.38 | 0.382 | 0.356 | –
3 | HCC-78 | 0.474 | 0.441 | 0.5 | 0.507 | 0.457 | – | – | – | – | – | 0.606 | 0.546 | 0.638 | 0.654 | 0.609 | 0.468 | 0.486 | 0.453 | 0.438 | 0.465
4 | NCI-H1563 | – | – | – | – | – | 0.468 | 0.52 | 0.538 | 0.506 | 0.497 | – | – | – | – | – | – | – | – | – | –
5 | HCC-15 | 0.795 | 0.765 | 0.82 | 0.595 | 0.703 | 0.442 | 0.379 | 0.389 | – | 0.358 | 1.15 | 1.5 | 1.4 | – | 1.23 | 0.73 | 0.767 | 0.733 | 0.755 | 0.684
6 | EKVX | 0.391 | 0.397 | 0.419 | – | 0.347 | 1.01 | 1.05 | 0.881 | 1.02 | 0.978 | 0.894 | 0.866 | 0.725 | – | 0.756 | 0.358 | 0.398 | 0.401 | 0.29 | 0.355
7 | NCI-H2087 | 0.204 | 0.302 | 0.239 | 0.174 | 0.25 | 0.194 | 0.166 | 0.18 | – | 0.163 | 1.45 | 1.29 | 1.53 | 1.31 | 1.24 | 0.284 | 0.203 | – | 0.187 | 0.198
8 | LK-2 | 1.04 | 1.03 | 0.568 | 0.68 | 0.559 | 0.235 | 0.165 | 0.175 | 0.213 | 0.17 | 0.488 | 0.557 | 0.542 | 0.368 | 0.305 | 0.521 | 0.656 | 0.679 | 0.599 | –
9 | NCI-H1437 | 0.284 | 0.281 | 0.344 | 0.282 | 0.294 | 1.2 | 1.1 | 1.21 | 1.11 | 1.1 | 1.14 | 1.11 | 1.12 | 1.05 | 1.1 | 0.313 | 0.314 | 0.312 | 0.243 | 0.299
10 | COR-L23 | 0.313 | 0.32 | 0.284 | 0.245 | 0.279 | 0.836 | 0.85 | 0.71 | 0.817 | 0.675 | – | – | – | – | – | 0.274 | 0.28 | 0.274 | 0.234 | 0.258
